# According to patent US6906097B2, “8-azaprostaglandin analogs as agents for lowering intraocular pressure” (Allergan, Inc., priority 2002, dated 2005):
# How the values were obtained:
# hEP3D = biological target: T1, hEP3D (Homo sapiens, UniProt P43115); experiment: Radioligand binding, hEP3D; conditions: [3H]PGE2 competition
# T1 construct: expressed in transfected cells; host or cells: COS-7, transient transfection, plasma membrane fraction
# T1 sequence (P43115 1-374 isoform P43115-4): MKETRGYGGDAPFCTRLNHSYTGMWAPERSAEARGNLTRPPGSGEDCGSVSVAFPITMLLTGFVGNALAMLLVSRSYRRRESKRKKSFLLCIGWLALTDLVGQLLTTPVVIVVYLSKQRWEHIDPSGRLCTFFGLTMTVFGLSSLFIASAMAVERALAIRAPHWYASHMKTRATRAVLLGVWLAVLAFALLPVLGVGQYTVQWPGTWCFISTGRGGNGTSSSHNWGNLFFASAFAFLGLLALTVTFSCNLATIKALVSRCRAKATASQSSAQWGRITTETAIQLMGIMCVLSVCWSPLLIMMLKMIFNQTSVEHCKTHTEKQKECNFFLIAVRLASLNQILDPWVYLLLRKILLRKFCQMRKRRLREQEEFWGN
# Procedure: For radioligand binding on the transient transfectants, plasma membrane fraction preparation was as follows. COS-7 cells were washed with TME buffer, scraped from the bottom of the flasks, and homogenized for 30 sec using a Brinkman PT 10/35 polytron. TME buffer was added to achieve a final 40 ml volume in the centrifuge tubes. The composition of TME is […]; 10N HCl is added to achieve a pH of 7.4.
# The cell homogenate was centrifuged at 19000 rpm for 20 min at 4° C. using a Beckman Ti-60 rotor. The resultant pellet was resuspended in TME buffer to give a final 1 mg/ml protein concentration, as determined by Biorad assay. Radioligand binding assays were performed in a 200 μl volume.
# The binding of [^3H] PGE2 (specific activity 165 […]) at EP3D, receptors and [^3H]-SQ29548 (specific activity 41.5 Ci mmol^−1) at TP receptors were determined in duplicate in at least three separate experiments. Radiolabeled PGE2 was purchased from Amersham, radiolabeled SQ29548 was purchased from New England Nuclear. […] Competition studies were performed using a final concentration of 2.5 or 5 nM [^3H]-PGE2, or 10 nM [^3H]-SQ 29548 and non-specific binding determined with 10 μM of the respective unlabeled prostanoid. […]
# hEP4 = biological target: T2, hEP4 (Homo sapiens, UniProt P35408); experiment: Functional data, human recombinant EP4 receptor stable transfectants; assay type: cell-based
# T2 construct: expressed in transfected cells
# Procedure: (§1) Human Recombinant EP1, EP2, EP3, EP4, FP, TP, IP and DP Receptors: Stable Transfectants
# (§2) Plasmids encoding the human EP1, EP2, EP3, EP4, FP, TP, IP and DP receptors were prepared by cloning the respective coding sequences into the eukaryotic expression vector pCEP4 (Invitrogen). The pCEP4 vector contains an Epstein Barr virus (EBV) origin of replication, which permits episomal replication in primate cell lines expressing EBV nuclear antigen (EBNA-1). It also contains a hygromycin resistance gene that is used for eukaryotic selection. […] HEK-293 cells were grown in DMEM with 10% fetal bovine serum (FBS), 250 μg ml^−1 G418 (Life Technologies) and 200 μg ml^−1 gentamicin or penicillin/streptomycin.
# (§3) For transfection, the cells were grown to 50-60% confluency on 10 cm plates. The plasmid pCEP4 incorporating cDNA inserts for the respective human prostanoid receptor (20 μg) was added to 500 μl of 250 mM CaCl2. […] After 30 min, 9 ml DMEM were added to the mixture. The DNA/DMEM/calcium phosphate mixture was then added to the cells, which had been previously rinsed with 10 ml PBS. The cells were then incubated for 5 hr at 37° C. in humidified 95% air/5% CO2. The calcium phosphate solution was then removed and the cells were treated with 10% glycerol in DMEM for 2 min. The glycerol solution was then replaced by DMEM with 10% FBS. The cells were incubated overnight and the medium was replaced by DMEM/10% FBS containing 250 μg ml^−1 G418 and penicillin/streptomycin. The following day hygromycin B was added to a final concentration of 200 μg ml^−1.
# (§4) Ten days after transfection, hygromycin B resistant clones were individually selected and transferred to a separate well on a 24 well plate. At confluence each clone was transferred to one well of a 6 well plate, and then expanded in a 10 cm dish. Cells were maintained under continuous hygromycin selection until use.
# hEP3A = biological target: T3, hEP3A (Homo sapiens, UniProt P43115); experiment: Functional data, human recombinant EP3A receptor stable transfectants; assay type: cell-based
# T3 construct: expressed in transfected cells
# T3 sequence (P43115 1-390): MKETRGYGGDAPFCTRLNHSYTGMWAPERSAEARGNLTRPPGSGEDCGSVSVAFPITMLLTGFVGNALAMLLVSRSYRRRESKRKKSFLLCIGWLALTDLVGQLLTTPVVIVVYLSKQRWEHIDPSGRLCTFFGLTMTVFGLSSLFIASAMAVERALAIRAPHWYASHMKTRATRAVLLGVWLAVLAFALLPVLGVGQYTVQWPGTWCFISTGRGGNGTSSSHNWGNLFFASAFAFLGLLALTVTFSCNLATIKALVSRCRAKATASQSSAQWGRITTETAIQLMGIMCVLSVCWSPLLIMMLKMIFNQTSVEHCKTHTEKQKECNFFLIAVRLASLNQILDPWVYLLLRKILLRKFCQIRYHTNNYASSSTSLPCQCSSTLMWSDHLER
# Procedure: as §1, §2, §3, §4
# T2 sequence (P35408 whole entry): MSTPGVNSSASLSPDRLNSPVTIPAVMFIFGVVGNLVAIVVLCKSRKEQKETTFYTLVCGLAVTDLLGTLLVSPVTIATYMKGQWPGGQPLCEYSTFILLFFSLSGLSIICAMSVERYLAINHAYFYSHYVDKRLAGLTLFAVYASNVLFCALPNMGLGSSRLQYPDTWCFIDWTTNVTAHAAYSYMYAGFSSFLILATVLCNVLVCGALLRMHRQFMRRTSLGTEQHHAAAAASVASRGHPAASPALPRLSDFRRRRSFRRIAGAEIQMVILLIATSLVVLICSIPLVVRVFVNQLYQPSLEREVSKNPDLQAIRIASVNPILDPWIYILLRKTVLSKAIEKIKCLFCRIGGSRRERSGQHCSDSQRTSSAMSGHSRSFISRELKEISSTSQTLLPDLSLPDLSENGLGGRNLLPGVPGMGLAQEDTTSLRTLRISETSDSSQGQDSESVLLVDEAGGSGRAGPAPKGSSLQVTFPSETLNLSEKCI
smiles,measurement,setting,value
"O=C(O)CCCCCCN1C(=O)CC[C@@H]1CCC(O)Cc1cccc(Cl)c1 (stereo partly drawn) [Example 1, 7-[2S-[3R-Hydroxy-4-(chloro-phenyl)-butyl]-5-oxo-pyrrolidin-1-yl]-heptanoic acid]",IC50,hEP3D,12 nM
same,EC50,hEP4,0.7 nM
same,EC50,hEP3A,608 nM
